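Values below derive from 48-hour exposures of cells grown in 96-well plates, with endpoints linearly interpolated between the two concentrations bracketing the appropriate inhibition level. GI50 = concentration required for 50% inhibition of growth. TGI: total growth inhibition.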
What was measured:
Experiment in all cases: NCI tumour cell line growth inhibition, 48 h
DMS 114 small cell lung = tested on: DMS 114 small cell lung
LXFL 529 NSCLC = tested on: LXFL 529 NSCLC
RXF-631 renal = tested on: RXF-631 renal
SNB-78 CNS = tested on: SNB-78 CNS
HOP-18 NSCLC = tested on: HOP-18 NSCLC
XF 498 CNS = tested on: XF 498 CNS
MDA-MB-435 = tested on: MDA-MB-435
MDA-N = tested on: MDA-N
NCI/ADR-RES ovarian = tested on: NCI/ADR-RES ovarian
P388 leukemia = tested on: P388 leukemia
P388/ADR leukemia = tested on: P388/ADR leukemia
SN12K1 renal = tested on: SN12K1 renal

SMILES | TGI (DMS 114 small cell lung) [µM] | TGI (LXFL 529 NSCLC) [µM] | TGI (RXF-631 renal) [µM] | TGI (SNB-78 CNS) [µM] | TGI (HOP-18 NSCLC) [µM] | TGI (XF 498 CNS) [µM] | also measured
O=C1/C=C(/c2ccc(O)cc2)[C@H](O)Cc2ccc(OC3OC(CO)C(O)C(O)C3O)cc2O1 (stereo partly drawn) (tested in a mixture with another compound) | > 100 | > 100 | > 100 | > 100 |  |  | 
Clc1cc(Cl)c2n[se]nc2c1 |  |  | > 100 | > 100 | > 100 |  | 
COc1cc(OC)c(Oc2cccc(OC)c2OC)c(OC)c1 | > 100 | > 100 |  | > 100 | 89.5 | > 100 | 
CC(=O)OCC1OC(n2c(-c3ccc(N)cc3)cc(-c3ccco3)c(C#N)c2=O)C(OC(C)=O)C(OC(C)=O)C1OC(C)=O (stereo not drawn) | > 50 | > 50 | > 50 | > 50 | > 50 |  | 
O=C(/C=C(\O)C(=O)O)/C=C(\O)c1ccc(Cl)cc1 | > 100 | > 100 |  | > 100 | > 100 | > 100 | 
O=C(Nc1ccc(Cl)cc1Cl)c1c/c(=N\O)c2ccc(O)cc2o1 | > 100 | > 100 | > 100 | > 100 | > 100 |  | 
NNC(=S)N/N=C(\c1nc2ccc(Cl)cc2[nH]c1=O)C(O)c1ccc(Cl)cc1Cl (stereo not drawn) | > 100 | > 100 | > 100 | > 100 | > 100 | > 100 | 
COC(=O)c1nc(N)[nH]c(=O)c1-c1ccc(Cl)cc1 | > 100 | > 100 | > 100 | > 100 |  | > 100 | 
O=C(CC1Sc2ccccc2NC1=O)Nc1ccc([N+](=O)[O-])cc1[N+](=O)[O-] (stereo not drawn) | 27.5 | 28.7 | 41.4 | 51.7 | 46 |  | 
COc1ccc(-c2cc(-c3ccco3)c(C#N)c(=O)n2C2OC(OC(=O)c3ccccc3)C(OC(=O)c3ccccc3)C2OC(=O)c2ccccc2)cc1 (stereo not drawn) | > 100 | > 100 | > 100 | > 100 | > 100 |  | 
COC1=C(C(=O)OC(C)(C)C)C23CCCCC2(C(C(=O)OC(C)(C)C)=C(OC)C3C(=O)OC(C)(C)C)C1C(=O)OC(C)(C)C (stereo not drawn) | > 100 | > 100 | 35.3 | > 100 | > 100 | > 100 | 
Cn1c(=O)c(C2c3ccccc3Oc3c2c(=O)n(C)c2ccccc32)c(O)c2ccccc21 (stereo not drawn) | > 100 | > 100 | > 100 | > 100 | > 100 | 75.9 | 
O=c1c2ccccc2oc2nccnc12 | > 100 | > 100 | > 100 | > 100 | > 100 | > 100 | 
COc1ccc(NC(=O)CC(=O)n2nc(-c3ccccc3)c(N=Nc3ccc(C)cc3)c2-c2ccccc2)cc1 | > 80.1 | > 100 | > 100 | 61.2 | > 78.3 | 24.9 | TGI (MDA-MB-435): > 100 µM; TGI (MDA-N): > 100 µM; TGI (NCI/ADR-RES ovarian): > 61 µM
Cc1cc(C)cc(NC(=O)CCC(=O)C2CCC/C2=N\NC(=O)C(=O)NN)c1 (stereo not drawn) | > 100 | > 100 | > 100 |  | > 100 | > 100 | 
O=C(N/C(=C\c1cc(Cl)ccc1Cl)c1nc2ccccc2[nH]1)c1ccccc1 | > 100 | > 100 | > 100 | > 100 |  | 69 | 
C[N+](C)(C)CC(=O)NC(=O)N/N=C\C(CC#N)CN(Cc1ccccc1)Cc1ccccc1 (stereo not drawn) | > 100 | > 100 | > 100 | > 100 | > 100 | > 100 | 
CC1=NN(C(=O)CC(=O)Nc2ccccc2)C(=O)C1N=Nc1ccc(S(N)(=O)=O)cc1 (stereo not drawn) | > 100 | > 100 | > 100 | > 100 | > 100 | > 100 | 
COc1cc2c3c(c1OC)C1(C=CC(=O)C=C1)CC3N(C(=O)OC(C)(C)C(Cl)(Cl)Cl)CC2 (stereo not drawn) | 22 | 82.9 |  | 33.8 | 50.4 | 23.9 | 
Cc1cc(C)c(-c2noc(-c3ccc(Cl)cc3)c2C2=NCCN2)c(C)c1 |  | 44.5 | > 100 | 58.3 | > 100 | 38.4 | 
CC(C)(C)NC(=O)C12C3C4C1C1C2C3C41I (stereo not drawn) | > 100 | > 100 | > 100 | > 100 |  | > 100 | 
COc1ccc2c(c1)C(CCN)C(=O)N2 (stereo not drawn) | > 100 | > 100 | > 100 | > 100 | > 100 | > 100 | 
O=C(CCCCCCCCC(=O)OCCCn1cc(C(=O)NC(=O)OCc2ccccc2)c(=O)[nH]c1=O)OCCCn1cc(C(=O)NC(=O)OCc2ccccc2)c(=O)[nH]c1=O |  |  | > 100 | > 100 | > 100 |  | 
Nc1ncnc2c1ncn2C1OC(CO)C(O)C1O (stereo not drawn) | > 437 |  |  | > 450 | > 399 | > 450 | GI50 (MDA-MB-435): 38.8 µM; TGI (MDA-MB-435): > 100 µM; TGI (MDA-N): > 100 µM; GI50 (NCI/ADR-RES ovarian): 5.06 µM; TGI (P388 leukemia): 111 µM; TGI (P388/ADR leukemia): 144 µM; TGI (SN12K1 renal): > 450 µM
Nc1ccc(Cl)cc1.Nc1ccc(Cl)cc1.Nc1ccc(Cl)cc1.O=C([O-])C(=O)[O-].O=C([O-])C(=O)[O-].[H+].[Ru+5] |  | > 100 | > 100 | > 100 | > 100 | > 100 | GI50 (DMS 114 small cell lung): 0.23 µM; GI50 (HOP-18 NSCLC): > 100 µM; GI50 (LXFL 529 NSCLC): < 0.0272 µM; GI50 (SNB-78 CNS): > 81.9 µM; GI50 (XF 498 CNS): > 87.2 µM
O=C(O)C(=O)/C=C\c1ccc(Cl)cc1 | > 100 | > 100 |  | > 100 | > 100 | > 100 | 
COC(=O)c1ccc2n[se]nc2c1 | > 100 | > 100 | > 100 | > 100 | > 100 | > 100 | 

Source: PubChem BioAssay (NCI)
